Assay results as given in patent US6737383B1, “Herbicidal oxadiazolidines” (priority 1999, dated 2004).

Columns and labels:
annual bluegrass [1] = assay: Test E annual bluegrass; type: in vivo, Poa annua; settings: Preemergence
wild oat = assay: Test E wild oat; type: in vivo, Avena fatua; settings: Postemergence
Method in brief: (§1)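 Greenhouse test: compounds in non-phytotoxic solvent with surfactant; for postemergence, sprayed on plants at 1- to 4-leaf stage grown in 60:40 sandy loam/potting mix. Injury rated visually against untreated controls after about 21 to 28 days.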

galium = assay: Test E galium; type: in vivo, Galium aparine; settings: Preemergence
lambsquarters [2] = assay: Test E lambsquarters; type: in vivo, Chenopodium album; settings: Preemergence
black nightshade = assay: Test E black nightshade; type: in vivo, Solanum nigra; settings: Postemergence
Method: (§2) Compounds evaluated in this test were formulated in a non-phytotoxic solvent mixture which included a surfactant and applied to plants that were in the 1- to 4-leaf stage (postemergence application). A mixture of sandy loam soil and greenhouse potting mix in a 60:40 ratio was used for the postemergence test.
(§3) Plantings of these crops and weed species were adjusted to produce plants of appropriate size for the postemergence test. All plant species were grown using normal greenhouse practices. Crop and weed species include annual bluegrass (Poa annua), blackgrass (Alopecurus myosuroides), black nightshade (Solanum nigra), chickweed (Stellaria media), common poppy (Papaver rhoeas), deadnettle (Lamium amplexicaule), downy brome (Bromus tectorum), field violet (Viola arvensis), galium (Galium aparine), green foxtail (Setaria viridis), Italian ryegrass (Lolium multiflorum), jointed goatgrass (Aegilops cylindrica), kochia (Kochia scoparia), lambsquarters (Chenopodium album), littleseed canarygrass (Phalaris minor), rape (Brassica napus), redroot pigweed (Amaranthus retroflexus), Russian thistle (Salsola kali), scentless chamomile (Matricaria inodora), spring barley (Hordeum vulgare), sugar beet (Beta vulgaris), sunflower (Helianthus annuus), ivyleaf speedwell (Veronica hederaefolia), spring wheat (Triticum aestivum), winter wheat (Triticum aestivum), wild buckwheat (Polygonum convolvulus), wild mustard (Sinapis arvensis), wild oat (Avena fatua), windgrass (Apera spica-venti) and winter barley (Hordeum vulgare).
(§4) Treated plants and untreated controls were maintained in a greenhouse for approximately 21 to 28 days, after which all treated plants were compared to untreated controls and visually evaluated. […] A dash response (-) means no test result.

spring barley [3] = assay: Test E spring barley; type: in vivo, Hordeum vulgare; settings: Preemergence
chickweed [4] = assay: Test E chickweed; type: in vivo, Stellaria media; settings: Postemergence
Method in brief: as §1

annual bluegrass [5] = assay: Test E annual bluegrass; type: in vivo, Poa annua; settings: Postemergence
Method in brief: as §1

wild mustard [6] = assay: Test E wild mustard; type: in vivo, Sinapis arvensis; settings: Postemergence
Method: […] A mixture of sandy loam soil and greenhouse potting mix in a 60:40 ratio was used for the postemergence test.
as §3, §4

downy brome = assay: Test E downy brome; type: in vivo, Bromus tectorum; settings: Postemergence; for Plant response rating, Downy brome: 0 to 100 scale
Method: as §2, §3, §4

chickweed [7] = assay: Test E chickweed; type: in vivo, Stellaria media; settings: Preemergence
redroot pigweed = assay: Test E redroot pigweed; type: in vivo, Amaranthus retroflexus; settings: Preemergence
jointed goatgrass = assay: Test E jointed goatgrass; type: in vivo, Aegilops cylindrica; settings: Preemergence
lambsquarters [8] = assay: Test E lambsquarters; type: in vivo, Chenopodium album; settings: Postemergence
Method: as §2, §3, §4

wild mustard [9] = assay: Test E wild mustard; type: in vivo, Sinapis arvensis; settings: Preemergence
common poppy = assay: Test E common poppy; type: in vivo, Papaver rhoeas; settings: Postemergence
Method: as §2, §3, §4

wild buckwheat = assay: Test E wild buckwheat; type: in vivo, Polygonum convolvulus; settings: Preemergence
sugar beet = assay: Test E sugar beet; type: in vivo, Beta vulgaris; settings: Preemergence
sunflower = assay: Test E sunflower; type: in vivo, Helianthus annuus; settings: Preemergence
field violet [10] = assay: Test E field violet; type: in vivo, Viola arvensis; settings: Preemergence
field violet [11] = assay: Test E field violet; type: in vivo, Viola arvensis; settings: Postemergence
Method in brief: as §1

kochia = assay: Test E kochia; type: in vivo, Kochia scoparia; settings: Postemergence
Method: as §2, §3, §4

Italian ryegrass = assay: Test E Italian ryegrass; type: in vivo, Lolium multiflorum; settings: Postemergence
Method in brief: as §1

littleseed canarygrass [12] = assay: Test E littleseed canarygrass; type: in vivo, Phalaris minor; settings: Preemergence
littleseed canarygrass [13] = assay: Test E littleseed canarygrass; type: in vivo, Phalaris minor; settings: Postemergence
Method: as §2, §3, §4

spring barley [14] = assay: Test E spring barley; type: in vivo, Hordeum vulgare; settings: Postemergence
Method: as §2, §3, §4

[15] = Rate 62 g/ha, 0 to 100 scale, 0 no effect, 100 complete control
[16] = Rate 125 g/ha, 0 to 100 scale (0 no effect, 100 complete control)
[17] = Rate 250 g/ha, 0 to 100 scale (0 no effect, 100 complete control)

CCn1c(=O)on(C(=O)N(c2ccc(Cl)cc2)C(C)C)c1=O [Compound 108]
Plant response rating, Annual bluegras (annual bluegrass [1]; [15]): 20 | Plant response rating, Annual bluegras (annual bluegrass [1]; [16]): 60 | Plant response rating, Annual bluegras (annual bluegrass [1]; Rate 250 g/ha, 0 to 100 scale): 60 | Plant response rating, Wild oat (wild oat; Rate 62 g/ha, 0 to 100 scale): 0 | Plant response rating, Wild oat (wild oat; Rate 125 g/ha, 0 to 100 scale): 5 | Plant response rating, Wild oat (wild oat; [17]): 20 | Plant response rating, Galium (galium; [15]): 95 | Plant response rating, Galium (galium; [16]): 50 | Plant response rating, Galium (galium; Rate 250 g/ha, 0 to 100 scale): 95 | Plant response rating, Lambsquarters (lambsquarters [2]; [15]): 80 | Plant response rating, Lambsquarters (lambsquarters [2]; [16]): 100 | Plant response rating, Lambsquarters (lambsquarters [2]; Rate 250 g/ha, 0 to 100 scale): 90 | Plant response rating, Blk nightshade (black nightshade; Rate 62 g/ha, 0 to 100 scale): 20 | Plant response rating, Blk nightshade (black nightshade; Rate 125 g/ha, 0 to 100 scale): 30 | Plant response rating, Blk nightshade (black nightshade; [17]): 50 | Plant response rating, Spring Barley (spring barley [3]; [15]): 10 | Plant response rating, Spring Barley (spring barley [3]; [16]): 10 | Plant response rating, Spring Barley (spring barley [3]; Rate 250 g/ha, 0 to 100 scale): 5 | Plant response rating, Chickweed (chickweed [4]; Rate 62 g/ha, 0 to 100 scale): 10 | Plant response rating, Chickweed (chickweed [4]; Rate 125 g/ha, 0 to 100 scale): 0 | Plant response rating, Chickweed (chickweed [4]; [17]): 0 | Plant response rating, Annual bluegras (annual bluegrass [5]; Rate 62 g/ha, 0 to 100 scale): 0 | Plant response rating, Annual bluegras (annual bluegrass [5]; Rate 125 g/ha, 0 to 100 scale): 15 | Plant response rating, Annual bluegras (annual bluegrass [5]; [17]): 50 | Plant response rating, Wild mustard (wild mustard [6]; Rate 62 g/ha, 0 to 100 scale): 5 | Plant response rating, Wild mustard (wild mustard [6]; Rate 125 g/ha, 0 to 100 scale): 10 | Plant response rating, Wild mustard (wild mustard [6]; [17]): 80 | Plant response rating, Downy brome (downy brome; Rate 62 g/ha): 0 | Plant response rating, Downy brome (downy brome; Rate 125 g/ha): 0 | Plant response rating, Downy brortie (downy brome; [17]): 0 | Plant response rating, Chickweed (chickweed [7]; [15]): 30 | Plant response rating, Chickweed (chickweed [7]; [16]): 40 | Plant response rating, Chickweed (chickweed [7]; Rate 250 g/ha, 0 to 100 scale): 30 | Plant response rating, Redroot pigweed (redroot pigweed; [15]): 70 | Plant response rating, Redroot pigweed (redroot pigweed; [16]): 90 | Plant response rating, Redroot pigweed (redroot pigweed; Rate 250 g/ha, 0 to 100 scale): 90 | Plant response rating, Jointed goatgra (jointed goatgrass; [15]): 30 | Plant response rating, Jointed goatgra (jointed goatgrass; [16]): 40 | Plant response rating, Jointed goatgra (jointed goatgrass; Rate 250 g/ha, 0 to 100 scale): 60 | Plant response rating, Lambsquarters (lambsquarters [8]; Rate 62 g/ha, 0 to 100 scale): 10 | Plant response rating, Lambsquarters (lambsquarters [8]; Rate 125 g/ha, 0 to 100 scale): 20 | Plant response rating, Lambsquarters (lambsquarters [8]; [17]): 20 | Plant response rating, Wild mustard (wild mustard [9]; [15]): 50 | Plant response rating, Wild mustard (wild mustard [9]; [16]): 90 | Plant response rating, Wild mustard (wild mustard [9]; Rate 250 g/ha, 0 to 100 scale): 65 | Plant response rating, Common poppy (common poppy; Rate 62 g/ha, 0 to 100 scale): 10 | Plant response rating, Comnion poppy (common poppy; Rate 125 g/ha, 0 to 100 scale): 0 | Plant response rating, Common poppy (common poppy; [17]): 0 | Plant response rating, Wild buckwheat (wild buckwheat; [15]): 60 | Plant response rating, Wild buckwheat (wild buckwheat; [16]): 100 | Plant response rating, Wild buckwheat (wild buckwheat; Rate 250 g/ha, 0 to 100 scale): 80 | Plant response rating, Sugar beet (sugar beet; [15]): 60 | Plant response rating, Sugar beet (sugar beet; [16]): 40 | Plant response rating, Sugar beet (sugar beet; Rate 250 g/ha, 0 to 100 scale): 60 | Plant response rating, Sunflower (sunflower; [15]): 0 | Plant response rating, Sunflower (sunflower; [16]): 0 | Plant response rating, Sunflower (sunflower; Rate 250 g/ha, 0 to 100 scale): 10 | Plant response rating, Field violet (field violet [10]; [15]): 15 | Plant response rating, Field violet (field violet [10]; [16]): 0 | Plant response rating, Field violet (field violet [10]; Rate 250 g/ha, 0 to 100 scale): 20 | Plant response rating, Field violet (field violet [11]; Rate 62 g/ha, 0 to 100 scale): 0 | Plant response rating, Field violet (field violet [11]; Rate 125 g/ha, 0 to 100 scale): 0 | Plant response rating, Field violet (field violet [11]; [17]): 20 | Plant response rating, Kochia (kochia; Rate 62 g/ha, 0 to 100 scale): 20 | Plant response rating, Kochia (kochia; Rate 125 g/ha, 0 to 100 scale): 40 | Plant response rating, Kochia (kochia; [17]): 30 | Plant response rating, I. Ryegrass (Italian ryegrass; Rate 62 g/ha, 0 to 100 scale): 20 | Plant response rating, I. Ryegrass (Italian ryegrass; Rate 125 g/ha, 0 to 100 scale): 5 | Plant response rating, I. Ryegrass (Italian ryegrass; [17]): 40 | Plant response rating, LS canarygrass (littleseed canarygrass [12]; [15]): 60 | Plant response rating, LS canarygrass (littleseed canarygrass [12]; [16]): 50 | Plant response rating, LS canarygrass (littleseed canarygrass [12]; Rate 250 g/ha, 0 to 100 scale): 70 | Plant response rating, LS canarygrass (littleseed canarygrass [13]; Rate 62 g/ha, 0 to 100 scale): 0 | Plant response rating, LS canarygrass (littleseed canarygrass [13]; Rate 125 g/ha, 0 to 100 scale): 20 | Plant response rating, LS canarygrass (littleseed canarygrass [13]; [17]): 70 | Plant response rating, Spring Barley (spring barley [14]; Rate 62 g/ha, 0 to 100 scale): 10 | Plant response rating, Spring Barley (spring barley [14]; Rate 125 g/ha, 0 to 100 scale): 20 | Plant response rating, Spring Barley (spring barley [14]; [17]): 25
